Measurements: patent US11420975B2, “Substituted imidazo[1,5-a]pyrazines as Bruton's tyrosine kinase inhibitors” (TRANSTHERA SCIENCES (NANJING), INC., priority 2018, dated 2022)

How the values were obtained:
[1] = Pharmacokinetic study in male beagle dogs, intragastric; assay type: in vivo; details: dog, 5 mg/kg
Description: Three adult male beagle dogs were fasted overnight before test. The test drugs were each suspended in a solution of 0.5% methylcellulose (MC) and 0.1% SDS in deionized water (w/w/v), and the suspension, each at a concentration of 1 mg/mL, was administered intragastrically at 5 mL/kg. Blood was collected 15 min, 30 min, 1 h, 2 h, 4 h, 6 h, 8 h and 24 h after administration. Animals were lightly anesthetized with chloral hydrate, and approximately 0.5 mL of whole blood was collected from the forelimb vein using a glass blood collection tube and placed in a heparin anticoagulant tube. The sample was centrifuged at 4° C./4200 rpm for 5 min. All plasma samples were stored in a refrigerator at −80±15° C. prior to analysis. An LC-MS/MS (Waters I Class UPLC-Xevo TQD tandem mass spectrometry) assay for the compounds was established prior to sample analysis. The collected plasma was quantitatively analyzed, plasma concentration-time data of animals were analyzed using WinNonlin (professional edition, version 5.2) software, a non-compartmental model was used for concentration analysis, and the pharmacokinetic parameters of the test compounds were calculated.

[2] = molecular target: BTK(C481S) (Homo sapiens (Human), UniProt Q06187, C481S); experiment: In vitro inhibitory activity against BTK(C481S) enzyme (33P-ATP filter binding); assay type: biochemical; details: class symbols; read-out: IC50 BTK(C48IS)
Description: The substrate solution was prepared by adding the substrate poly(Glu, Tyr) sodium salt (Sigma Aldrich, St. Louis, Mo.) to the substrate reaction buffer (20 mM Hepes (pH 7.5), 10 mM MgCl2, 1 mM EGTA, 0.02% Brij35, 0.02 mg/mL BSA, 0.1 mM Na3VO4, 2 mM DTT and 1% DMSO) (final substrate concentration in the reaction solution was 0.2 μM). Test compound was formulated into stock solutions at 10 mM concentration with 100% DMSO, and 3-fold serial dilution for 10 doses was performed in a 384-well cyclic olefin copolymer LDV microplate. […] Test compound in 100% DMSO was then added to the kinase reaction mixture by acoustic liquid transfer technology (Echo 550; nanoliter range) (Labcyte Inc, Sunnyvale, Calif.) and incubated for 20 min at room temperature. 33P-ATP (specific activity 10 μCi/μL) was added to the reaction mixture to initiate the reaction, followed by incubation at room temperature for 2 h. A small portion of the reaction mixture was dropped onto P-81 ion exchange filter paper (Whatman). After washing the unbound phosphate from the filter paper with 0.75% phosphate buffer (three times) and drying, the remaining radioactivity on the filter paper was measured. The kinase activity was expressed as the percentage of the remaining kinase activity in the test sample to the kinase activity in the vehicle (dimethyl sulfoxide) blank control. IC50 values were calculated by curve fitting the data obtained using Prism (GraphPad Software).

[3] = tested on: TMD-8; experiment: In vitro tumor cell proliferation inhibition, TMD-8 (CellTiter-Glo); assay type: cell-based; details: Homo sapiens, TMD8; TMD-8 cells, 72 h
Description: (1) Method • The tumor cell line (TMD-8/OCY-LY10) was suspended in RPMI1640+FBS10% and cultured in an incubator (37° C., 5% CO2). Cells were passaged periodically, and cells at logarithmic growth phase were collected for plating. • Cell staining was performed with trypan blue and viable cells were counted. • Cell concentration was adjusted to 7000 cells/well with medium. • 90 μL of cell suspension was added to a 96-well plate and cell-free culture medium was added to the blank control wells. • Cells in the 96-well plate were incubated overnight in an incubator (37° C., 5% CO2, 100% relative humidity). • Preparation of 400× compound storage plates: test compounds and reference drug were each dissolved in DMSO and 3× diluted from the highest concentration (400 μM) to the lowest concentration (0.61 μM). • Preparation of 10× compound working solutions: 78 μL of cell culture medium was added to a V-bottom 96-well plate, and 2 μL of the compound was pipetted from the 400× compound storage plate into the 96-well plate. Vehicle control wells and blank control wells were added with 2 μL of DMSO. […] Inhibition rates of compounds at different concentrations were calculated in Excel, followed by plotting the inhibition curves and calculating IC50 values with GraphPad Prism.

[4] = Pharmacokinetic study in male SD rats, intragastric; assay type: in vivo; details: rat, 5 mg/kg
Description: Male SD rats were fasted overnight before test. The test drugs were each suspended in a solution of 0.5% methylcellulose (MC) and 0.1% SDS in deionized water (w/w/v), and the suspension, each at a concentration of 1 mg/mL, was administered intragastrically at 5 mL/kg. At 15 min, 30 min, 1 h, 2 h, 4 h, 6 h, 8 h and 24 h after administration, approximately 0.4 mL of whole blood was collected from the orbital venous plexus of the animals and then placed in heparin anticoagulant tubes. Three animals were sampled at each time point and then put to death, and thus sample collection was completed on different individuals. The whole blood sample would be centrifuged within 15 min and centrifuged at 4° C./4200 rpm for 5 min. All plasma samples were stored in a refrigerator at −80±15° C. prior to analysis. An LC-MS/MS (Waters I Class UPLC-Xevo TQD tandem mass spectrometry) assay for the compounds was established prior to sample analysis. The collected plasma was quantitatively analyzed, plasma concentration-time data of animals were analyzed using WinNonlin (professional edition, version 5.2) software, a non-compartmental model was used for concentration analysis, and the pharmacokinetic parameters of the test compounds were calculated.

BTK(C481S), sequence (Q06187 whole entry C481S): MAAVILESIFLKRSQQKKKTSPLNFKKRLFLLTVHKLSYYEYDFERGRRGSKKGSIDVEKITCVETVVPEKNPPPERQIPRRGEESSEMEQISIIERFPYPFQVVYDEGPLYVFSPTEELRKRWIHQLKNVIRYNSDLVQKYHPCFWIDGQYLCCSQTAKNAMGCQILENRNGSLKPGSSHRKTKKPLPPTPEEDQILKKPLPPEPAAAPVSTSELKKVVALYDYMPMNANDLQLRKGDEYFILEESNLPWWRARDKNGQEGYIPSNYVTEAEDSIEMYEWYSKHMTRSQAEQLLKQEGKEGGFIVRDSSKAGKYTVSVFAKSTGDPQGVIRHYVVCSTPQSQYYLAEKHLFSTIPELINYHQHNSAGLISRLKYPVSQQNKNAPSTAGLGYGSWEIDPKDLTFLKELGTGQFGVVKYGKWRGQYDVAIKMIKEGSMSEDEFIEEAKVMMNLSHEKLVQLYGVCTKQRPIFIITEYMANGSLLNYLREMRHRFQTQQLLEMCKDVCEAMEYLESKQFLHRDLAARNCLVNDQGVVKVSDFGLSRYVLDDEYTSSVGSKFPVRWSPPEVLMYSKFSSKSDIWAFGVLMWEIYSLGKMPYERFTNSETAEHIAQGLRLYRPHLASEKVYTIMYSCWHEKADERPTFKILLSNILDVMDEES

Compound `Nc1nccn2c(C34CCC(NC(=O)CN5CCOCC5)(CC3)C4)nc(-c3ccc(C(=O)Nc4cc(C(F)(F)F)ccn4)cc3)c12` [Compound A-10-10, 4-(8-amino-3-(4-(2-morpholinoacetamido)bicyclo[2.2.1]heptan-1-yl)imidazo[1,5-a]pyrazin-1-yl)-N-(4-(trifluoromethyl)pyridin-2-yl)benzamide] has an AUC0-INF ([1]; p.o.) of 14.867 µg·h/mL, a Cmax ([1]; p.o.) of 0.641 µg/mL and an AUC(0-inf) ([1]; male, beagle, plasma, po) of 14.9 µg·h/mL. For the same compound, the Tmax ([1]; male, beagle, plasma, po) was 8 h, the half-life ([1]; male, beagle, plasma, po) was 14.2 h and the Cmax ([1]; male, beagle, plasma, po, p.o., read-out: Cmax) was 0.641 µg/mL. The IC50 [2] was no more than 0.1 nM, the IC50 [3] was 2.9 nM and the AUC(0-inf) ([4]; male, SD, plasma, po) was 73.3 µg·h/mL. For the same compound, the Tmax ([4]; male, SD, plasma, po) was 2 h, the half-life ([4]; male, SD, plasma, po) was 3.74 h and the Cmax ([4]; male, SD, plasma, po, p.o., read-out: Cmax) was 8.32 µg/mL. It also gave an AUC0-INF ([4]; p.o.) of 73.318 µg·h/mL and a Cmax ([4]; p.o.) of 8.323 µg/mL.
